Source: patent US9388405B2, “Method for identifying a subpopulation of mammalian cells with distinctive ribosome translation profiles” (priority 2009, dated 2016)

Tests used:
Type in all cases: cell-based, human
[1] = tested on: MCF7 CMV-fLuc subclone #65; assay: Topoisomerase 1 inhibitor single-Toxin and two-Toxin (100 nM TPA) dose response, cap-dependent; details: 10 nM to 10 uM
Description: FIG. 28A illustrates a dose response assay of the MCF7 CMV-fLuc subclone #65 treated with varying doses (10 nM to 10 uM range) of the following Topoisomerase 1 inhibitors: camptothecin, topotecan, irinotecan, and rubitecan. Following a 6 hr incubation in a single-Toxin assay, cells were lysed and fLuc protein activity measured using a standard microplate reader assay. The plate reader values were averaged and expressed as the ratio of treated to untreated samples (Fold Induction). The dashed line represents the level of translational response in untreated cell samples.
FIG. 28B illustrates the use of a Combinatorial Assay to examine the effects of Topoisomerase 1 inhibitors on cap-dependent translation. A series of dose response assays were performed on the MCF7 CMV-fLuc subclone #65 using varying doses of the Topoisomerase 1 inhibitors (10 nM to 10 uM range) in a Two-Toxin assay with a constant 100 nM TPA dose. The plate reader values were averaged and expressed as the ratio of treated to untreated samples (Fold Induction). The dashed line represents the level of translational response in untreated samples.
FIG. 28A illustrates a cap-dependent dose response assay of MCF7 cells treated with varying dosages (10 nM to 10 uM range) of the following TopoI inhibitors: camptothecin, topotecan, irinotecan, and rubitecan. […] While the altered irinotecan response might have been predicted based on its metabolic requirements, the lack of topotecan action on cap-dependent translation in the single-Toxin assays was unexpected.
Since similar doses inhibited translation in the single-Toxin assays (FIG. 28A), this effect might have represented a direct effect on translation.

[2] = tested on: HEK293 mTRdm-fLuc subclone #13 and HEK293 hTRdm-gLuc subclone #79; assay: Updated 15-Assay / 21-Assay, TR translational responses (fLuc, gLuc); details: Updated 15-Assay, High Dose 10 uM, single- and two-Toxin
Description: (§1) The dashed line represents the level of translational response in the untreated samples.
As before, secreted Gaussia Luciferase (gLUC) activity was measured in conditioned media 6 hr after drug application and protein activity expressed as the ratio of treated to untreated samples (Fold Induction). The dashed line represents the translational response in untreated cells.
The dashed line represents the translational response produced by untreated cell samples.
Following a 6 hr culture time, secreted gLuc activity was measured in conditioned media using a standard microplate reader assay and expressed as the ratio of treated to untreated samples (Fold Induction). The dashed line represents the level of translational response in the untreated samples. Given that the gLuc protein is secreted into the media, it escapes the cytoplasmic protein turnover processes acting on the fLUC protein. Therefore, any difference in the apparent TR response is a likely result of variation in reporter protein synthesis, secretion or reduced protein turnover.
The 21-Assay procedure employs the same standard toxins as the Updated 15-Assay protocol. The extra 6 assays involve an unknown or an uncharacterized compound and its pairwise combinations with the five toxins: Unknown, Unknown+TPA, Unknown+Colchcine, Unknown+Bortezomib (Velcade), Unknown+Low dose Calon, and Unknown+Hycamtin (Topotecan). […]

[3] = tested on: MCF7 mTRdm-fLuc subclone #27; assay: Topoisomerase 1 inhibitor single-Toxin and two-Toxin (100 nM TPA) dose response, cap-independent
Description: FIG. 28C illustrates the use of single-Toxin Assays to measure the effects of Topoisomerase 1 inhibitors on cap-independent translation in MCF7 cells. Triplicate samples of the MCF7 mTRdm-fLuc subclone #27 were treated with varying concentrations (10 nM to 10 uM range) of the Topoisomerase 1 inhibitors; camptothecin, rubitecan, irinotecan and topotecan. The plate reader values were averaged and expressed as the ratio of treated to untreated samples (Fold Induction). The dashed line represents the level of translational response in untreated controls.
FIG. 28D illustrates the use of a two-Toxin Combinatorial Assay on the MCF7 mTRdm-fLuc subclone #27 treated with 100 nM TPA plus varying doses (10 nM to 10 uM range) of the Topoisomerase 1 inhibitors. The plate reader values were averaged and expressed as the ratio of treated to untreated samples (Fold Induction). The dashed line represents the level of translational response in untreated samples. All four inhibitors acted synergistically with TPA to increase protein activity in the 10 nM two-Toxin assay.
FIG. 28D illustrates the use of a two-Toxin dose response assay using varying dosages of the TopoI inhibitors in combination with the 100 nM TPA translational activator. All four inhibitors acted synergistically with TPA at low doses to increase protein translation. At concentrations higher than 100 nM, camptothecin, rubitecan, and topotecan antagonized the TPA response and reduced the fLUC expression.

[4] = tested on: HEK293 CMV-fLuc subclone #3; assay: Updated 15-Assay / 21-Assay, cap-dependent translational responses; details: Updated 15-Assay two-Toxin with 100 nM TPA, cap-dependent
Text: as §1
Following 6 hr exposure to the compounds, cells were lysed and fLuc protein activity measured using a standard microplate reader assay. The triplicate plate reader values were averaged and expressed as the ratio of treated to untreated samples (Fold Induction). The dashed line represents the level of translational response in the untreated samples.
The 21-Assay procedure employs the same standard toxins as the Updated 15-Assay protocol. The extra 6 assays involve an unknown or an uncharacterized compound and its pairwise combinations with the five toxins: Unknown, Unknown+TPA, Unknown+Colchcine, Unknown+Bortezomib (Velcade), Unknown+Low dose Calon, and Unknown+Hycamtin (Topotecan).
Application of single-Toxin and two-Toxin assays in the Updated 15-Assay protocol was used to define cap-dependent translational responses in the HEK293 CMV-fLuc #3 subclone (FIG. 30A).
The combinatorial process described in this example provides a system for testing translational regulation by unknown compounds. In this example, a 21-Assay setup is described that employs the single and pairwise combinatorial application of 5 toxins, as in a standard 15-Toxin assay, and the addition of a sixth substance. Inclusion of the sixth substance requires the expansion of the assay group to a total of 21 single- and two-Toxin assays. For this example, a control substance (taxol) was selected from the original 15-Assay system.

[5] = tested on: MCF7 CMV-fLuc subclones #44 and #48; assay: PKC activator dose response, cap-dependent translation (fLuc); details: single-Toxin, 6 hr
Description: Following 6 hr exposure to the Single-Toxin TPA assay, cells were lysed and fLuc protein activity measured using a standard microplate reader assay. The raw values were averaged and expressed as the ratio of treated to untreated samples (Fold Induction).
Dashed lines represent translational response levels produced by a 100 nM TPA Single-Toxin assay. The Bryostatin 1 concentrations (top panel) encompassed the TPA concentrations used in FIG. 27A. […] The Bryostatin 2 dose response curve (bottom panel) employed higher drug concentrations (the maximal tested dose was 5× the largest TPA and Bryostatin 1 amounts). At the highest tested dose (2.5 uM), Bryostatin 2 produced fLuc activity consistent with the level observed with 100 nM TPA.
In addition to measuring cap-dependent and cap-independent translational effects, Class-specific translational activity and toxin-defined actions, the previously described materials and methods allow for a variety of applications designed to detect and characterize agents and processes that regulate ribosome activity. In this example, comparative dose response assays were used to detect cap-dependent and cap-independent translational regulation in MCF7 cells. The basis for this application was the observation that distinct translational responses are produced by compounds at different doses. When an assortment of compounds act on a common molecular target, they can be grouped into a genus of related drugs. By comparing individual species of a compound genus over a defined dose range, differences in translational regulation can be defined. Furthermore, these translational differences can often be linked to biological differences.
In this example (FIG. 27), the three PKC activators produced similar dose response trends in cap-dependent assays. […] However, macrolide lactones produced translational increases that were generally 60-70% of the TPA translational response (FIG. 27B). In fact, a 25 fold increase in Bryostatin 2 concentration (2.5 uM) was needed to produce a translational magnitude similar to the 100 nM TPA assay (FIG. 27B).

HCT116 mTRdm-fLUC cells = assay: 5-Assay / 15-Assay toxin assays, fLUC plate reader (Fold Induction)
Description: The 5-Assay and 15-Assay procedures were applied to cellular pools using either of two growth procedures (e.g. a Cell Count or Confluence growth assay). For a Cell Count assay, cells from the P1 pool dish were counted and passed into a white clear bottom 96-well microtiter tray at a density of 25,000 cells per well; the leftover cells were passed into a passage 2 (P2) dish. Cells in the microtiter plate were allowed to grow for about 40 hr to achieve a ˜75% cell confluence prior to incubation with a toxic agent. Then cells in a microtiter plate were treated with complete growth medium containing either no toxin or an optimal toxin, defined as a single or multiple toxin assay that produces a maximal translational response (taken from Table 3) and incubated for 6 hours at 37° C. Each treatment was performed on triplicate wells.
After toxin incubation, cells were examined by phase contrast microscopy for signs of detachment. If more than ˜10% of cells were detached, the 96-well plates were centrifuged at 1200 rpm for 3 min to pellet the detached cells. The media were removed and replaced with 50 μL of Cell Lysis Buffer (25 mM Tris-phosphate (pH7.8), 10% glycerol, 1% Triton X-100, 1 mg/ml BSA, 2 mM EGTA and 2 mM DTT). Cells were incubated with the Cell Lysis Buffer for 10 min at RT and cell lysis was verified using a phase contrast microscope. To ensure complete lysis, the lysates were vigorously agitated using the multichannel pipettor. Any air bubbles formed as a result of agitation were manually removed with a syringe needle. Luminescence was measured using the FLUOstar Optima (BMG Labtech) microplate reader. To develop luminescence, wells were injected with 5 μL of the D-luciferin solution dissolved in Reaction Buffer (25 mM Glycylglycine (pH 7.8), 15 mM MgSO4, 4 mM EDTA, 15 mM Potassium phosphate, 1 mM DTT, 1 mM Coenzyme A, 6.7 mM ATP and 3.35 mM D-luciferin). After 4 sec with shaking, luminescence values were measured using the lens filter at gains of 2500-4000.
Light values were converted to Fold Induction using the ratio of values produced by treated and untreated cells. The maximal TR-specific translational response produced by the 5-Toxin or 15-Toxin assay was used to assign an optimal toxin assay (maximal translational response) which was subsequently used to screen subclones derived from this pool and to assign a Class designation. […]
In one test, the 5-Assay procedure (Table 3) was applied to HCT116 mTRdm-fLUC 12-16 subclone #30 cells (FIG. 1A). […] Samples were then processed with Lysis buffer and read in a plate reader. […]
Triplicate samples of HCT116 mTRdm-fLUC 12-16 Sub#30 cells were cultured with the two-Toxin assays using a standard plate reader protocol (FIG. 1C). […]

[6] = tested on: MCF7 mTRdm-fLuc subclones #8, #27, and #45; assay: PKC activator dose response, cap-independent TR translation (fLuc); details: single-Toxin, 6 hr
Description: Following 6 hr culture with a TPA single-Toxin assay, cells were lysed and fLuc protein activity measured using a standard microplate reader assay. The plate reader values were averaged and expressed as the ratio of treated to untreated samples (Fold Induction).
As with FIG. 27B, dashed lines represent translational response levels achieved by the 100 nM TPA assay in each cell line. […] A further difference between the cap-dependent and cap-independent assays was the observation that increased Bryostatin 2 concentrations (5× the maximal TPA dose) never produced fLUC activity equivalent to the 100 nM TPA assay. Thus, the Toxin Assay procedure can detect a statistically significant difference in cap-dependent and cap-independent translation in compounds that activate PKC activity.
In the cap-independent assays, a similar dose response trend was observed over a 1 nM to 250 nM range with a translational peak at a 100 nM dose. However, the magnitude of the Bryostatin increases were generally 30% of 100 nM TPA response.

SMILES: CC[C@@]1(O)C(=O)OCc2c1cc1n(c2=O)Cc2cc3c(CN(C)C)c(O)ccc3nc2-1.Cl [topotecan, (S)-10-[(dimethylamino)methyl]-4-ethyl-4,9-dihydroxy-1H-pyrano[3′,4′:6,7]indolizino[1,2-b]quinoline-3,14(4H,12H)-dione monohydrochloride]
- effect on cap-dependent translation ([1]; single-Toxin): neither topotecan or irinotecan significantly altered cap-dependent translation
- effect on TPA-specific translational response ([1]; two-Toxin with constant 100 nM TPA, cap-dependent): showed only the TPA inhibitory effect at high doses (i.e. 5 uM and 10 uM)
- effect on translation [2]: inhibitory effect of Topotecan (HD) was evident in all Single- and two-Toxin assays
- effect on cap-independent translation ([3]; single-Toxin, 10 nM to 10 uM): exhibited reduced fLUC activity at higher doses (5 uM and 10 uM)
- effect on TPA activity ([3]; two-Toxin with 100 nM TPA, 10 nM to 10 uM): antagonized the TPA activity and exhibited reduced fLUC expression
- fLUC expression at the highest dose ([3]; two-Toxin with 100 nM TPA, highest dose): basal level expression
- effect on the TPA response [4]: TPA response was antagonized

SMILES: CC(C)C[C@H](NC(=O)[C@H](Cc1ccccc1)NC(=O)c1cnccn1)B(O)O [Velcade, [(1R)-3-methyl-1-[[(2S)-1-oxo-3-phenyl-2-[(pyrazinylcarbonyl)amino]propyl]amino]butyl] boronic acid]
- effect on the TPA response [4]: TPA response was antagonized

SMILES: CNc1ccc2oc(C[C@H]3O[C@@]4(CC[C@H]3C)O[C@H]([C@H](C)C(=O)c3ccc[nH]3)[C@H](C)C[C@H]4C)nc2c1C(=O)O [calcimycin, Calcimycin]
- effect on the TPA response [4]: TPA response was antagonized

SMILES: CCCCCCCCCCCCCC(=O)O[C@@H]1[C@@H](C)[C@@]2(O)[C@@H](C=C(CO)C[C@]3(O)C(=O)C(C)=C[C@@H]23)[C@@H]2C(C)(C)[C@]12OC(C)=O [TPA, 12-O-tetradecanoylphorbol-13-acetate]
- dose giving maximal reporter level (translational peak) [5]: 100 nM
- TR-specific toxin response (HCT116 mTRdm-fLUC cells; 5-Assay, 6 hr, HCT116 mTRdm-fLUC 12-16 subclone #38): Maximal TR-specific toxin responses
- increase in reporter activity (maximal TR-specific response) (HCT116 mTRdm-fLUC cells; 5-Assay, TPA single-Toxin 100 nM, 6 hr, HCT116 mTRdm-fLUC 12-16 subclone #30): 800-1200%
- dose giving peak fLuc protein activity [6]: 100 nM

SMILES: CCCC(=O)Nc1ncnc2c1ncn2[C@@H]1O[C@@H]2COP(=O)(O)O[C@H]2[C@H]1OC(=O)CCC [dbcAMP, Dibutyryl-cyclic AMP]
- translational response (HCT116 mTRdm-fLUC cells; dbcAMP single-Toxin assay, HCT116 mTRdm-fLUC transformed subclones): minimal translational response
